The record followed here is patent US20230047816A1 (priority 2018, published 2023).

The subject of one experiment is neurons. The experiment is described as follows: Neuroprotection, protection factor, b-amyloid treatment. The experiment is classed as cell-based. The conditions noted are these: Treatment beta-amyloid, 24 hours. Here is the method: For NMDAR activation, neurons at 8 days in vitro were incubated 100 μM NMDA (plus 10 μM glycine) for 10 minutes. Neurons were then washed and further incubated in culture medium with the PFKFB3 inhibitors for 24 hours. For b-amyloid treatment, neurons at 8 days in vitro were incubated with […] b-amyloid plus the PFKFB3 inhibitors for 24 hours. The Protection factor was estimated as [AMC(beta-A)−AMC(DMSO)]/[AMC(beta-A)−AMC(Test article)] or [AMC(beta-A)−AMC(DMSO)]/[AMC(NMDA)−AMC(Test article)], where:
AMC(DMSO)—% dead neuron in case of DMSO treatment
AMC(beta—A)—% dead neuron in case of b—amyloid treatment
AMC(Test article)—% dead neuron in case of PFKFB3 inhibitors treatment.

Experiment [1] has as its target Recombinant full length human PFKFB3 (Homo sapiens, UniProt Q16875). The experiment is described as follows: PFKFB3 kinase activity assay (ADP production, ADP-Glo). A general note: ADP-Glo first removes unused ATP, then detects ADP through luciferase.
Experimental: Recombinant full length human PFKFB3 (or PFKFB4) protein purified from Sf9 baculoviral system was acquired from SignalChem (Cat. #P323-30G or P324-30G). ATP, Fructose-6-Phosphate and other chemicals were from Sigma-Aldrich. The kinase activity of the PFKFB3 (PFKFB4) protein was detected by measuring production of ADP from ATP in the presence of the Fructose-6-Phosphate substrate. The kinase reactions were assembled in 384 well plates in a total volume of 25 μL. Test compounds were serially diluted in DMSO. Reactions were set up by first mixing test compounds with enzyme and pre-incubating for 15 min. The ATP and Fructose-6-Phosphate substrates were next added to initiate the kinase reactions.
The compounds of invention listed below in this example were tested at various concentrations (which also added 1% DMSO from compounds, to the final solution) as described below. The kinase reactions were allowed to proceed for 1 h at room temperature. Aliquots of the reaction mixtures (5 μL) were transferred to fresh white 384 well plates and mixed with 5 μL of the ADP-Glo reagent (Promega), followed by incubation for 30 min. The luminescent Kinase Detection reagent was added (10 μL) and, following additional incubation for 15 min, the plates were read on luminescence plate reader (Analyst HT). Positive (100%-inhibition) and negative (0%-inhibition) control samples were assembled in each assay plate and were used to calculate percent inhibition values of test compounds. All experiments were performed in duplicate.

Chain of Recombinant full length human PFKFB3 (Q16875 whole entry): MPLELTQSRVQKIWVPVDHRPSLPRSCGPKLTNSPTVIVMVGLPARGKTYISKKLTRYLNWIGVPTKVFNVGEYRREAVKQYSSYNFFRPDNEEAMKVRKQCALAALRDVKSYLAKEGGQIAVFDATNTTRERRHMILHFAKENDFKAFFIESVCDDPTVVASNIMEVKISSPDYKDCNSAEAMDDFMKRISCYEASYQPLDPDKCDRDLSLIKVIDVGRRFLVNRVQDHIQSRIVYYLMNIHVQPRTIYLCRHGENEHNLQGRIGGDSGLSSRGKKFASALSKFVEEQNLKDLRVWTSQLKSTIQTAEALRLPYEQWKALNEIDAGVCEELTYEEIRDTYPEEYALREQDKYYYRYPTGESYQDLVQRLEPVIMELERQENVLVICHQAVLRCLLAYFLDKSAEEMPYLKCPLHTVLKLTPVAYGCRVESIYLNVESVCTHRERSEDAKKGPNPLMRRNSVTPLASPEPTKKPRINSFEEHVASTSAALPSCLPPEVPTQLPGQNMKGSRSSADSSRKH

In the experiment on neurons, `CC(C)Cn1cc(C#N)c2cc(Oc3ccc(NC(=O)[C@@H]4CCCN4)cc3)ccc21` [(2S)-N-(4-{[3-cyano-1-(2-methylpropyl)-1H-indol-5-yl]oxy]phenyl)pyrrolidine-2-carboxamide] yielded a Protection factors of 1.97.

For the compound `O=C(O)c1cc2c(cc1O)C(=O)N(c1cc(-c3ccc(F)c(F)c3)ccc1C(=O)O)C2=O`, in the experiment with neurons, the Protection factors is recorded as 2.15.

Regarding `CC(C)OC(=O)c1ccc(-c2ccc(F)c(F)c2)cc1N1Cc2ccc(-c3cn[nH]n3)cc2C1=O`, the Protection factors in the experiment on neurons is listed as 1.43.

On to `O=C(O)c1ccc2c(c1)C(=O)N(c1cc(-c3ccc(Cl)cc3Cl)ccc1C(=O)O)C2=O`, for which, in the experiment with neurons, the Protection factors stood at 1.75.

With `O=C(O)c1ccc(-c2ccc(F)c(F)c2)cc1N1C(=O)c2cc(Cl)c(-c3cn[nH]n3)cc2C1=O`, in the experiment on neurons, the Protection factors is 1.15.

For the compound `CC1(C)CCC(c2ccc(C(=O)O)c(NC(=O)c3cc(C(=O)O)c(O)cc3C(=O)O)c2)CC1` [2-{[2-carboxy-5-(4,4-dimethylcyclohexyl)phenyl]carbamoyl}-5-hydroxybenzene-1,4-dicarboxylic acid], the Protection factors in the experiment on neurons stood at 2.05.

Consider `CCOC(=O)c1ccc(-c2ccc(F)c(F)c2)cc1N1Cc2ccc(-c3cn[nH]n3)cc2C1=O`, for which the Protection factors in the experiment on neurons was 2.35.

Compound `Cc1noc(C)c1Cn1cc(C#N)c2cc(Oc3ccc(NC(=O)[C@@H]4CCCN4)cc3)ccc21` [(2S)-N-[4-({3-cyano-1-[(3,5-dimethyl-1,2-oxazol-4-yl)methyl]-1H-indol-5-yl}oxy)phenyl]pyrrolidine-2-carboxamide] had a Protection factors with neurons of 1.68.

Regarding `O=C(O)c1ccc(-c2ccc(F)c(F)c2)cc1N1Cc2ccc(-c3cn[nH]n3)cc2C1=O`, in the experiment on neurons, the Protection factors worked out at 12.17.

As for `O=C(O)c1ccc2c(c1)C(=O)N(c1ccc(-c3ccccc3)cc1-c1nnn[nH]1)C2=O` [Example 2, 1,3-Dioxo-2-[3-(1H-tetrazol-5-yl)-1,1′-biphenyl-4-yl]-2,3-dihydro-1H-isoindole-5-carboxylic Acid], the IC50 (usually the concentration needed to halve the response being measured) in experiment [1] is less than 0.5 µM.

Take `O=C(O)c1cc(C(=O)O)c(C(=O)Nc2cc(-c3ccc(Cl)cc3Cl)ccc2C(=O)O)cc1F` [Example 59, 4-({4-carboxy-2′,4′-dichloro-[1,1′-biphenyl]-3-yl}carbamoyl)-6-fluorobenzene-1,3-dicarboxylic acid]: the IC50 in experiment [1] was less than 0.5 µM.

In the case of `O=C(O)c1ccc(-c2ccc(F)cc2F)cc1N1C(=O)c2ccc(-c3c[nH]nn3)cc2C1=O` [Example 51], the IC50 in experiment [1] is less than 0.5 µM.

For the compound `CN(C)CCOC(=O)c1ccc(-c2ccc(Cl)cc2Cl)cc1NC(=O)c1ccc(C(=O)N=S(C)(C)=O)cc1C(=O)O` [Example 49, 2-[(2′,4′-dichloro-4-{[2-(dimethylamino)ethoxy]carbonyl}-[1,1′-biphenyl]-3-yl)carbamoyl]-5-{[dimethyl(oxo)-λ^6-sulfanylidene]carbamoyl}benzoic acid], the IC50 in experiment [1] was less than 0.5 µM.

Consider `CCOC(=O)c1ccc(-c2ccc(F)c(F)c2)cc1N1C(=O)c2ccc(-c3cnn[nH]3)cc2C1=O` [compound 167, ethyl 3-[1,3-dioxo-5-(1H-1,2,3-triazol-5-yl)-1,3-dihydro-2H-isoindol-2-yl]-3′,4′-difluoro[1,1′-biphenyl]-4-carboxylate], for which, in experiment [1], the IC50 is less than 20 µM.

On to `CC1(C)CCC(c2ccc(C(=O)O)c(NC(=O)c3cc(O)c(C(=O)O)cc3C(=O)O)c2)CC1` [Example 52, 4-{[2-carboxy-5-(4,4-dimethylcyclohexyl)phenyl]carbamoyl}-6-hydroxybenzene-1,3-dicarboxylic acid], for which the IC50 in experiment [1] is less than 0.5 µM.

On to `NC(=O)c1ccc(-c2ccc(F)c(F)c2)cc1N1Cc2ccc(C(=O)O)cc2C1=O` [Compound 119, 2-(4-Carbamoyl-3′,4′-difluorobiphenyl-3-yl)-3-oxo-2,3-dihydro-1H-isoindole-5-carboxylic acid], for which, in experiment [1], the IC50 lay in the range of 5 to 20 µM.

Take `CC1(C)CCC(c2ccc(C(=O)O)c(NC(=O)c3cc(C(=O)O)c(O)cc3C(=O)O)c2)CC1` [Example 57, 2-{[2-carboxy-5-(4,4-dimethylcyclohexyl)phenyl]carbamoyl}-5-hydroxybenzene-1,4-dicarboxylic acid]: the IC50 in experiment [1] is less than 0.5 µM.

In the case of `O=C(O)c1cc(-c2ccccc2)ccc1N1C(=O)c2ccc(-c3cn(Cc4ccccc4)nn3)cc2C1=O` [Example 29], in experiment [1], the IC50 is 2 to 5 µM.

Consider `CS(=O)(=O)NC(=O)c1ccc2c(c1)C(=O)N(c1cc(-c3ccccc3)ccc1C(=O)O)C2=O` [Example 25, 3-(5-Methanesulfonylaminocarbonyl-1,3-dioxo-1,3-dihydroisoindol-2-yl)biphenyl-4-carboxylic Acid], for which, in experiment [1], the IC50 is less than 0.5 µM.

As to `Cn1cncc1-c1ccc(N2C(=O)c3ccc(C(=O)O)cc3C2=O)c(C(=O)O)c1` [Compound 76, 2-[2-Carboxy-4-(3-methyl-3H-imidazol-4-yl)-phenyl]-1,3-dioxo-2,3-dihydro-1H-isoindole-5-carboxylic Acid], the IC50 in experiment [1] is less than 0.5 µM.

`O=C(O)c1ccc2c(c1)C(=O)N(c1ccc(-c3ccccc3)cc1CO)C2=O` [Example 4]: the IC50 in experiment [1] was 2 to 5 µM.

In the case of `COc1ccc(-c2c(C)sc(N3C(=O)c4ccc(C(=O)N[C@@H](Cc5ccccc5)C(=O)O)cc4C3=O)c2C#N)cc1` [Compound 137, (2S)-2-({2-[3-Cyano-4-(4-methoxyphenyl)-5-methyl-thiophen-2-yl]-1,3-dioxo-2,3-dihydro-1H-isoindole-5-carbonyl}-amino)-3-phenylpropanoic acid], the half-maximal inhibitory concentration (IC50) in experiment [1] is 0.5 to 2 µM.

On to `O=C(O)c1ccc(NC(=O)c2cccc(-c3ccccc3)c2)c(C(=O)O)c1` [Example 17, 4-{[1,1′-biphenyl]-3-amido}benzene-1,3-dicarboxylic acid], for which the IC50 in experiment [1] fell in the range of 0.5 to 2 µM.

`O=C1c2ccc(-c3c[nH]nn3)cc2C(=O)N1c1cc(-c2ccc(F)cc2)c(-c2ccccc2)cn1` [compound 146, 2-(4-(4-fluorophenyl)-5-phenylpyridin-2-yl)-5-(1H-1,2,3-triazol-4-yl)isoindoline-1,3-dione]: in experiment [1], the IC50 is less than 20 µM.

On to `CC(C)OC(=O)c1ccc(-c2ccc(F)c(F)c2)cc1N1Cc2ccc(-c3c[nH]nn3)cc2C1=O` [Compound 118, 3′,4′-Difluoro-3-[1-oxo-6-(1H-[1,2,3]triazol-4-yl)-1,3-dihydro-isoindol-2-yl]-biphenyl-4-carboxylic acid isopropyl ester], for which the 50% inhibitory concentration (IC50) in experiment [1] was less than 20 µM.

For the compound `O=C(O)c1ccc2c(c1)C(=O)N(c1cc(-c3cccnc3)ccc1C(=O)O)C2=O` [Example 52], in experiment [1], the IC50 was less than 0.5 µM.

Consider `CC(CN(C)C)OC(=O)c1ccc(-c2ccc(Cl)cc2Cl)cc1NC(=O)c1cc(O)c(C(=O)O)cc1C(=O)O` (stereo not drawn) [Example 65, 4-{[2′,4′-dichloro-4-({[1-(dimethylamino)propan-2-yl]oxy}carbonyl)-[1,1′-biphenyl]-3-yl]carbamoyl}-6-hydroxybenzene-1,3-dicarboxylic acid], for which, in experiment [1], the IC50 was less than 0.5 µM.

As to `O=C1c2ccc(-c3c[nH]nn3)cc2C(=O)N1c1cc(-c2ccccc2)ccc1-c1nnn[nH]1` [Example 54], the IC50 in experiment [1] was 2 to 5 µM.

`CC1(C)CCC(c2ccc(C(=O)O)c(NC(=O)c3cc(F)c(C(=O)O)cc3C(=O)O)c2)CC1` [Example 63, 4-{[2-carboxy-5-(4,4-dimethylcyclohexyl)phenyl]carbamoyl}-6-fluorobenzene-1,3-dicarboxylic acid]: the IC50 in experiment [1] is less than 0.5 µM.

Turning to `O=C(O)c1cc(C(=O)O)c(C(=O)Nc2cc(-c3ccc(F)c(F)c3)ccc2O)cc1O` [Example 27, 4-((3′,4′-difluoro-4-hydroxy-[1,1′-biphenyl]-3-yl)carbamoyl)-6-hydroxyisophthalic acid], the half-inhibitory concentration (IC50) in experiment [1] was less than 0.5 µM.
